In ChEMBL document CHEMBL6078667, “Synthesis, Biological Evaluation, and Mechanistic Insights of Rubrolide Analogues as Antitumor Agents” (J Nat Prod, 2024):
The source made the active and inactive calls. No cut-off for these calls is given here.

How the values were obtained:
HeLa [1] = assay: Induction of apoptosis in human HeLa cells assessed as viable cells at 0.4 uM incubated for 24 hrs by Annexin V-FITC/PI staining based flow cytometric analysis (reference value: 90.6 %); type: functional; conditions: read-out: Activity
HeLa [2] = assay: Cytotoxicity against human HeLa cells assessed as inhibition of cell growth at 10 uM measured after 72 hrs by MTT assay relative to control; type: functional
MKN-45 = assay: Cytotoxicity against human MKN-45 cells assessed as inhibition of cell growth incubated for 72 hrs by MTT assay; type: functional, cell-based; conditions: MKN-45, 72 h
HCT-116 [3] = assay: Induction of apoptosis in human HCT-116 cells assessed as late apoptotic cells at 0.4 uM incubated for 24 hrs by Annexin V-FITC/PI staining based analysis (reference value: 0.095 %); type: functional
HCT-116 [4] = assay: Induction of apoptosis in human HCT-116 cells assessed as late apoptotic cells at 0.2 uM incubated for 24 hrs by Annexin V-FITC/PI staining based analysis (reference value: 0.095 %); type: functional
HCT-116 [5] = assay: Cytotoxicity against human HCT-116 cells assessed as inhibition of cell growth at 10 uM measured after 72 hrs by MTT assay relative to control; type: functional
HCT-116 [6] = assay: Cell cycle arrest in human HCT-116 cells assessed as accumulation of cells at G0/G1 phase at 0.4 uM measured after 24 hrs by PI staining based flow cytometric analysis (reference value: 51.3 %); type: functional
[7] = Drug localization in human HCT-116 cell endoplasmic reticulum incubated for 8 hrs by […] dye based fluorescence microscopic analysis; type: ADME, subcellular; conditions: hct-116, 8 h
HeLa [8] = assay: Cell cycle arrest in human HeLa cells assessed as accumulation of cells at G0/G1 phase at 0.4 uM measured after 24 hrs by PI staining based flow cytometric analysis (reference value: 54.7 %); type: functional
HCT-116 [9] = assay: Induction of apoptosis in human HCT-116 cells assessed as viable cells at 0.2 uM incubated for 24 hrs by Annexin V-FITC/PI staining based analysis (reference value: 92.4 %); type: functional; conditions: read-out: Activity
U-87 MG [10] = assay: Cytotoxicity against human U-87 MG cells assessed as inhibition of cell growth at 10 uM measured after 72 hrs by MTT assay relative to control; type: functional, U-87MG ATCC
U-87 MG [11] = assay: Cytotoxicity against human U-87 MG cells assessed as survival rate at 10 uM measured after 72 hrs by MTT assay relative to control; type: functional, U-87MG ATCC; conditions: read-out: Survival
HCT-116 [12] = assay: Induction of apoptosis in human HCT-116 cells assessed as necrotic cells at 0.4 uM incubated for 24 hrs by Annexin V-FITC/PI staining based analysis (reference value: 0.083 %); type: functional
HCT-116 [13] = assay: Cytotoxicity against human HCT-116 cells assessed as inhibition of cell growth incubated for 72 hrs by MTT assay; type: functional, cell-based; conditions: HCT-116, 72 h
HCT-116 [14] = assay: Cell cycle arrest in human HCT-116 cells assessed as increase in cyclin B1 expression at 0.2 to 0.4 uM incubated for 24 hrs by Western blot analysis; type: functional, cell-based; conditions: dose 0.2-0.4 µM
[15] = Cytotoxicity against HHL-5 cells assessed as inhibition of cell growth incubated for 72 hrs by MTT assay; type: toxicity, cell-based; conditions: human
[16] = Drug localization in human HeLa cell mitochondria incubated for 8 hrs by Mito-tracker green dye based fluorescence microscopic analysis; type: ADME
[17] = Selectivity index, ratio of IC50 for HHL-5 cells to IC50 for human HeLa cells; type: toxicity; conditions: HHL-5 cells and HeLa cells, pooled result: one value given for 6 cell lines, strains, targets or settings, read-out: Ratio IC50
HeLa [18] = assay: Cytotoxicity against human HeLa cells assessed as inhibition of cell growth incubated for 72 hrs by MTT assay; type: functional, cell-based
HCT-116 [19] = assay: Induction of apoptosis in human HCT-116 cells assessed as viable cells at 0.4 uM incubated for 24 hrs by Annexin V-FITC/PI staining based analysis (reference value: 92.4 %); type: functional; conditions: read-out: Activity
HCT-116 [20] = assay: Induction of apoptosis in human HCT-116 cells assessed as early apoptotic cells at 0.4 uM incubated for 24 hrs by Annexin V-FITC/PI staining based analysis (reference value: 7.40 %); type: functional
HCT-116 [21] = assay: Upregulation of phosphorylated eIF2alpha expression in human HCT-116 cells at 0.2 to 0.4 uM measured after 48 hrs by Western blot analysis; type: functional, cell-based; conditions: dose 0.2-0.4 µM
[22] = Drug localization in human HCT-116 cell mitochondria incubated for 8 hrs by Mito-tracker green dye based fluorescence microscopic analysis; type: ADME; conditions: hct-116, 8 h
HCT-116 [23] = assay: Cell cycle arrest in human HCT-116 cells assessed as accumulation of cells at G2/M phase at 0.4 uM measured after 24 hrs by PI staining based flow cytometric analysis (reference value: 26.4 %); type: functional
[24] = Toxicity in female BALB/c nude mouse xenografted with human HeLa cells assessed as animal survival at 20 mg/kg, ip administered as liposome formulation once daily for 13 days; type: organism-based; conditions: in vivo, 312 h, time 13 day
MGC-803 = assay: Cytotoxicity against human MGC-803 cells assessed as inhibition of cell growth incubated for 72 hrs by MTT assay; type: functional, cell-based; conditions: MGC-803, 72 h
HCT-116 [25] = assay: Upregulation of phosphorylated PERK expression in human HCT-116 cells at 0.2 to 0.4 uM measured after 48 hrs by Western blot analysis; type: functional, cell-based; conditions: dose 0.2-0.4 µM
HCT-116 [26] = assay: Induction of apoptosis in human HCT-116 cells assessed as necrotic cells at 0.2 uM incubated for 24 hrs by Annexin V-FITC/PI staining based analysis (reference value: 0.083 %); type: functional
HeLa [27] = assay: Induction of ROS production in human HeLa cells at 0.2 to 0.4 uM incubated for 24 hrs by DCFH-DA probe based flow cytometric analysis; type: functional, cell-based; conditions: dose 0.2-0.4 µM
MCF7 = assay: Cytotoxicity against human MCF7 cells assessed as survival rate at 10 uM measured after 72 hrs by MTT assay relative to control; type: functional; conditions: read-out: Survival
HeLa [28] = assay: Upregulation of phosphorylated PERK expression in human HeLa cells at 0.2 to 0.4 uM measured after 48 hrs by Western blot analysis; type: functional, cell-based; conditions: dose 0.2-0.4 µM
HCT-116 [29] = assay: Cell cycle arrest in human HCT-116 cells assessed as accumulation of cells at G0/G1 phase at 0.2 uM measured after 24 hrs by PI staining based flow cytometric analysis (reference value: 51.3 %); type: functional
HeLa [30] = assay: Cell cycle arrest in human HeLa cells assessed as accumulation of cells at G2/M phase at 0.2 uM measured after 24 hrs by PI staining based flow cytometric analysis (reference value: 22.8 %); type: functional
HeLa [31] = assay: Induction of apoptosis in human HeLa cells assessed as viable cells at 0.2 uM incubated for 24 hrs by Annexin V-FITC/PI staining based flow cytometric analysis (reference value: 90.6 %); type: functional; conditions: read-out: Activity
HeLa [32] = assay: Induction of apoptosis in human HeLa cells assessed as early apoptotic cells at 0.2 uM incubated for 24 hrs by Annexin V-FITC/PI staining based flow cytometric analysis (reference value: 2.35 %); type: functional
HeLa [33] = assay: Induction of ROS production in human HeLa cells assessed as fold change at 0.2 to 0.4 uM incubated for 24 hrs by DCFH-DA probe based flow cytometric analysis; type: functional; conditions: dose 0.2-0.4 µM
HCT-116 [34] = assay: Cell cycle arrest in human HCT-116 cells assessed as accumulation of cells at G2/M phase at 0.2 uM measured after 24 hrs by PI staining based flow cytometric analysis (reference value: 26.4 %); type: functional

## COc1ccc(C2=CC(=O)O/C2=C\c2ccc(O)cc2)cc1
HeLa [1]
  viability at 0.4 µM: 47.9%
HeLa [2]
  inhibition at 10 µM: > 50%
MKN-45
  IC50: 0.2 µM
HCT-116 [3]
  Activity: 14.7%
HCT-116 [4]
  Activity: 7.71%
HCT-116 [5]
  inhibition at 10 µM: > 50%
HCT-116 [6]
  Activity: 23.2%
[7]
  Drug uptake: Active
HeLa [8]
  Activity: 8.71%
HCT-116 [9]
  viability at 0.2 µM: 82.7%
U-87 MG [10]
  inhibition at 10 µM: > 50%
U-87 MG [11]
  viability at 10 µM: 12.4%
HCT-116 [12]
  Activity: 7.38%
HCT-116 [13]
  IC50: 0.2 µM
HCT-116 [14]
  Activity: Active
[15]
  IC50 at 72 h: 6.3 µM
[16]
  Drug uptake: Not_active
[17]
  selectivity ratio: 2.6
HeLa [18]
  IC50: 0.2 µM
HCT-116 [19]
  viability at 0.4 µM: 69.6%
HCT-116 [20]
  Activity: 8.33%
HCT-116 [21]
  Activity: Active; Compound Impacts Endoplasmic Reticulum Stress Related Perk-Eif2Alpha-Chop Signalling Pathway
[22]
  Drug uptake: Not_active
HCT-116 [23]
  Activity: 31.6%
[24]
  Activity: Non-toxic
MGC-803
  IC50: 1.1 µM
HCT-116 [25]
  Activity: Active; Compound Impacts Endoplasmic Reticulum Stress Related Perk-Eif2Alpha-Chop Signalling Pathway
HCT-116 [26]
  Activity: 5.89%
HeLa [27]
  Activity: Active
MCF7
  viability at 10 µM: 24.8%
HeLa [28]
  Activity: Active; Compound Impacts Endoplasmic Reticulum Stress Related Perk-Eif2Alpha-Chop Signalling Pathway
HCT-116 [29]
  Activity: 38.8%
HeLa [30]
  Activity: 58.6%
HeLa [31]
  viability at 0.2 µM: 83.2%
HeLa [32]
  Activity: 4.86%
HeLa [33]
  fold change (FC): >4
HCT-116 [34]
  Activity: 22.8%
